ChEMBL document CHEMBL1201862, “PubChem BioAssay data set” (2004)
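Protocol summary: plate cells (96-well), add compound at 5 concentrations, incubate 48 h, interpolate endpoints linearly. At the GI50, growth is halved.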 The source made the active and inactive calls. Cut-off read from the data, not from the text of the source: active = GI50 up to about 1.1 µM and inactive = higher.

What was measured:
Assay in all cases: DTP human tumour cell line panel, 48 h
U-251 = tested on: U-251
HCT-15 = tested on: HCT-15
A498 = tested on: A498
SNB-75 = tested on: SNB-75
CCRF-CEM = tested on: CCRF-CEM
NCI-H522 = tested on: NCI-H522
SF-268 = tested on: SF-268
RXF 393 = tested on: RXF 393
SF-539 = tested on: SF-539
HT-29 = tested on: HT-29
MCF7 = tested on: MCF7
Hs-578T = tested on: Hs-578T
K562 = tested on: K562
TK-10 = tested on: TK-10
HCC 2998 = tested on: HCC 2998
EKVX = tested on: EKVX
SK-MEL-5 = tested on: SK-MEL-5
NCI/ADR-RES = tested on: NCI/ADR-RES
OVCAR-4 = tested on: OVCAR-4
SN12C = tested on: SN12C
HOP-62 = tested on: HOP-62
DU-145 = tested on: DU-145
MDA-MB-435 = tested on: MDA-MB-435
MDA-N = tested on: MDA-N
786-0 = tested on: 786-0
UACC-257 = tested on: UACC-257
SK-OV-3 = tested on: SK-OV-3
OVCAR-8 = tested on: OVCAR-8
SW-620 = tested on: SW-620
NCI-H23 = tested on: NCI-H23
SK-MEL-2 = tested on: SK-MEL-2
COLO 205 = tested on: COLO 205
UO-31 = tested on: UO-31
HCT-116 = tested on: HCT-116
MDA-MB-231 = tested on: MDA-MB-231
PC-3 = tested on: PC-3
A549 = tested on: A549
M14 = tested on: M14
HOP-92 = tested on: HOP-92
ACHN = tested on: ACHN
Malme-3M = tested on: Malme-3M
NCI-H460 = tested on: NCI-H460
LOX IMVI = tested on: LOX IMVI
UACC-62 = tested on: UACC-62
OVCAR-3 = tested on: OVCAR-3
OVCAR-5 = tested on: OVCAR-5
CAKI-1 = tested on: CAKI-1
MOLT-4 = tested on: MOLT-4
NCI-H226 = tested on: NCI-H226
RPMI-8226 = tested on: RPMI-8226
IGROV-1 = tested on: IGROV-1
BT-549 = tested on: BT-549
SNB-19 = tested on: SNB-19
KM12 = tested on: KM12
SF-295 = tested on: SF-295
SR = tested on: SR
T47D = tested on: T47D
HL-60 = tested on: HL-60

Measured: GI50

CC/C(=C\c1ccc(OC)cc1)c1ccc(OC)cc1
74 µM: HCT-15
inactive: U-251 > 100 µM | A498 > 100 µM | SNB-75 > 100 µM | CCRF-CEM > 100 µM | NCI-H522 > 100 µM | SF-268 > 100 µM | RXF 393 60.8 µM | SF-539 > 100 µM | HT-29 37.5 µM | MCF7 > 100 µM | Hs-578T > 100 µM | K562 > 100 µM | TK-10 > 100 µM | HCC 2998 > 100 µM | EKVX > 100 µM | SK-MEL-5 30.1 µM | NCI/ADR-RES > 100 µM | OVCAR-4 > 100 µM | SN12C > 100 µM | HOP-62 > 100 µM | DU-145 > 100 µM | MDA-MB-435 45.7 µM | MDA-N > 100 µM | 786-0 94.2 µM | UACC-257 38.5 µM | SK-OV-3 > 100 µM | OVCAR-8 > 100 µM | SW-620 > 100 µM | NCI-H23 86.3 µM | SK-MEL-2 65.6 µM | COLO 205 > 100 µM | UO-31 > 100 µM | HCT-116 > 100 µM | MDA-MB-231 > 100 µM | PC-3 > 100 µM | A549 > 100 µM | M14 72.6 µM | HOP-92 69.7 µM | ACHN > 100 µM | Malme-3M 50.7 µM | NCI-H460 > 100 µM | LOX IMVI 70.6 µM | UACC-62 > 100 µM | OVCAR-3 > 100 µM | OVCAR-5 66.7 µM | CAKI-1 > 100 µM | MOLT-4 52.5 µM | NCI-H226 > 100 µM | RPMI-8226 86.3 µM | IGROV-1 > 100 µM | BT-549 75.3 µM | SNB-19 > 100 µM | KM12 > 100 µM | SF-295 53.3 µM

CC1(C)Oc2ccc3c(=O)cc(-c4cccs4)oc3c2C1C(=O)O (configuration not stated)
inactive: U-251 > 100 µM | A498 > 100 µM | CCRF-CEM > 100 µM | NCI-H522 > 100 µM | SF-268 > 100 µM | RXF 393 > 100 µM | SF-539 > 100 µM | HT-29 > 100 µM | MCF7 > 100 µM | Hs-578T > 100 µM | K562 > 100 µM | TK-10 > 100 µM | SR > 100 µM | T47D > 100 µM | HCC 2998 > 100 µM | EKVX > 100 µM | SK-MEL-5 > 100 µM | NCI/ADR-RES > 100 µM | SN12C > 100 µM | HOP-62 > 100 µM | DU-145 > 100 µM | MDA-MB-435 > 100 µM | MDA-N > 100 µM | 786-0 > 100 µM | UACC-257 > 100 µM | SK-OV-3 > 100 µM | OVCAR-8 > 100 µM | NCI-H23 > 100 µM | SK-MEL-2 > 100 µM | COLO 205 > 100 µM | HCT-116 > 100 µM | MDA-MB-231 > 100 µM | PC-3 > 100 µM | A549 > 100 µM | M14 > 100 µM | Malme-3M > 100 µM | UACC-62 > 10 µM | OVCAR-3 > 100 µM | OVCAR-5 > 100 µM | CAKI-1 23.2 µM | MOLT-4 > 100 µM | NCI-H226 > 100 µM | IGROV-1 > 100 µM | SF-295 > 100 µM | HL-60 > 100 µM

O=c1cc(-c2ccccc2)oc2ccc(-c3ccc4oc(-c5ccccc5)cc(=O)c4c3)cc12
15.8 µM: HCT-15
inactive: A498 14.7 µM | CCRF-CEM 18 µM | SF-539 15.6 µM | HT-29 30.9 µM | MCF7 18.8 µM | Hs-578T 12.2 µM | K562 14.2 µM | TK-10 29.4 µM | HCC 2998 16 µM | EKVX 3.75 µM | SK-MEL-5 12.9 µM | NCI/ADR-RES 16.8 µM | OVCAR-4 19.3 µM | SN12C > 10 µM | HOP-62 19.1 µM | MDA-MB-435 17.8 µM | MDA-N 15.4 µM | 786-0 28.4 µM | UACC-257 > 10 µM | SK-OV-3 44.8 µM | OVCAR-8 16.6 µM | SW-620 30.5 µM | NCI-H23 15.7 µM | SK-MEL-2 18.2 µM | COLO 205 17.1 µM | UO-31 8.95 µM | HCT-116 15.9 µM | PC-3 > 10 µM | A549 16.7 µM | M14 16.6 µM | HOP-92 14.4 µM | ACHN 20.5 µM | Malme-3M 20.3 µM | NCI-H460 19.6 µM | LOX IMVI 17.3 µM | UACC-62 14.9 µM | OVCAR-3 > 10 µM | OVCAR-5 27.6 µM | CAKI-1 16.6 µM | MOLT-4 11.2 µM | RPMI-8226 13.5 µM | IGROV-1 26.9 µM | BT-549 > 10 µM | SNB-19 6.82 µM | SF-295 20.8 µM | HL-60 10.1 µM
